The text below walks through data of patent publication US10179123B2, “2-aryl- and 2-arylalkyl-benzimidazoles as mIDH1 inhibitors” (BAYER PHARMA AKTIENGESELLSCHAFT, priority 2015, dated 2019).

Sequence of IDH1 R132H enzyme (O75874 whole entry R132H): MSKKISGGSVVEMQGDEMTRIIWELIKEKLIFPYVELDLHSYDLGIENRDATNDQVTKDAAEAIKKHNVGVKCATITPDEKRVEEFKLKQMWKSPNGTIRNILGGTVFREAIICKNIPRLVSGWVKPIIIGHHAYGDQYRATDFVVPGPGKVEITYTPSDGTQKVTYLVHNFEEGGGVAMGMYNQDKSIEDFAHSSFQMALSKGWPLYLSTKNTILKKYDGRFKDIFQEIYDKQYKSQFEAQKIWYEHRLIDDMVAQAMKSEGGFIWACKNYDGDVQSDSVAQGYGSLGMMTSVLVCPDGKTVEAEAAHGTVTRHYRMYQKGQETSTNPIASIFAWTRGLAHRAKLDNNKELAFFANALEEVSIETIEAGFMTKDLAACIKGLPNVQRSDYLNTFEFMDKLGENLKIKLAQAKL

For the assay, the target named is IDH1 R132H enzyme (Homo sapiens (Human), UniProt O75874, R132H). The experiment in a line: Mutant IDH1 R132H biochemical assay. Conditions: NADPH consumption, luminescent readout; 1.5 nM enzyme, 1 μM NADPH, 250 μM α-KG, 30 minutes, 32° C. Here is the method:
NADPH consumption was measured by luminescent readout. […] The final DMSO concentration was 2.4%. […] Luminescence was measured on a luminescent reader (10 seconds measuring time, 1 second integration period, 30% sensitivity). The decrease in luminescence is proportional to mIDH1 activity. IC50 values are determined by interpolation from plots of relative luminescence versus inhibitor concentration.
The IC50 is the concentration that inhibits the measured activity by half. High values mean weaker potency, low ones greater potency. Compound `COC(=O)c1ccc2c(c1)nc(Cc1cccc(OC(F)(F)F)c1)n2[C@H]1C[C@@H](C)CC(C)(C)C1` (racemic) [Example 2-14, (±) methyl 2-[3-(trifluoromethoxy)benzyl]-1-[(cis)-3,3,5-trimethylcyclohexyl]-1H-benzimidazole-5-carboxylate] came in with an IC50 of 10 µM.

The compound `COC(=O)c1ccc2c(c1)nc(Cc1ccc(C(F)(F)F)cc1)n2[C@H]1C[C@@H](C)CC(C)(C)C1` (racemic) [Example 2-8, (±) methyl 2-[4-(trifluoromethyl)benzyl]-1-[(cis)-3,3,5-trimethylcyclohexyl]-1H-benzimidazole-5-carboxylate] had a 50% inhibitory concentration (IC50) of 1.5 µM.

Regarding `Cc1nc(-c2ccccc2)sc1Cc1nc2cc(C(=O)O)ccc2n1[C@@H]1C[C@H](C)CC(C)(C)C1` (stereo in doubt) [Example 2-41], the midpoint of inhibition, the IC50, lay at 2.3 µM.

The compound `COC(=O)c1ccc2c(c1)nc(-c1ccc(OC(F)(F)F)cc1)n2[C@H]1C[C@@H](C)CC(C)(C)C1` (racemic) [Example 2-1, (±) methyl 2-[4-(trifluoromethoxy)phenyl]-1-[(cis)-3,3,5-trimethylcyclohexyl]-1H-benzimidazole-5-carboxylate] displayed an IC50 of 9.9 µM.

`C[C@@H]1C[C@H](n2c(Cc3ccc(OC(F)(F)F)cc3)nc3cc(C(=O)O)c(OCC(F)(F)F)cc32)CC(C)(C)C1` (stereo in doubt) [Example 2-47-2] returned an IC50 of 0.65 µM.

Turning to `COC(=O)c1ccc2c(c1)nc(C(C)c1ccc(OC(F)(F)F)cc1)n2[C@H]1C[C@@H](C)CC(C)(C)C1` (single isomer, unassigned) [Reference compound 2-4-1, methyl 2-{1-[4-(trifluoromethoxy)phenyl]ethyl}-1-[(cis)-3,3,5-trimethylcyclohexyl]-1H-benzimidazole-5-carboxylate, reference compound], the IC50 was greater than 10 µM.

For `C[C@H]1C[C@@H](n2c(Cc3ccc(F)cc3)nc3cc(C(=O)O)ccc32)CC(C)(C)C1` (stereo in doubt) [Example 2-35], the IC50 turned out to be 1.3 µM. This lies in the single-digit micromolar range.

Consider `COC(=O)c1ccc2c(c1)nc(-c1ccc(OC(F)(F)F)cc1)n2[C@H]1C[C@@H](C)CC(C)(C)C1` (single isomer, unassigned) [Example 2-1-2, methyl 2-[4-(trifluoromethoxy)phenyl]-1-[(cis)-3,3,5-trimethylcyclohexyl]-1H-benzimidazole-5-carboxylate], for which the midpoint of inhibition, the IC50, lay at 5.7 µM.

`COC(=O)c1ccc2c(c1)nc(-c1ccc(OC(F)(F)F)cc1)n2[C@H]1C[C@@H](C)CC(C)(C)C1` (single isomer, unassigned) [Example 2-1-1, methyl 2-[4-(trifluoromethoxy)phenyl]-1-[(cis)-3,3,5-trimethylcyclohexyl]-1H-benzimidazole-5-carboxylate] yielded a half-inhibitory concentration (IC50) of 1 µM.

With `CC(C)Oc1ccc(Cc2nc3cc(C#N)ccc3n2[C@H]2C[C@@H](C)CC(C)(C)C2)cc1` (racemic) [Example 2-24, (±) 2-[4-(propan-2-yloxy)benzyl]-1-[(cis)-3,3,5-trimethylcyclohexyl]-1H-benzimidazole-5-carbonitrile], the IC50 worked out at 1.5 µM.

In turn, `COC(=O)c1ccc2c(c1)nc(Cc1ccc(F)cc1)n2[C@H]1C[C@@H](C)CC(C)(C)C1` (racemic) [Example 2-9, (±) methyl 2-(4-fluorobenzyl)-1-[(cis)-3,3,5-trimethylcyclohexyl]-1H-benzimidazole-5-carboxylate] yielded an IC50 of 4.2 µM.

Compound `COC(=O)c1ccc2c(nc(Cc3ccc(OC(F)(F)F)cc3)n2C2CC(C)(C)CC(C)(C)C2)c1F` [Example 2-22, methyl 4-fluoro-1-(3,3,5,5-tetramethylcyclohexyl)-2-[4-(trifluoromethoxy)benzyl]-1H-benzimidazole-5-carboxylate] yielded an IC50 of 0.8 µM.

Consider `C[C@H]1C[C@@H](n2c(C(C)(C)c3ccc(OC(F)(F)F)cc3)nc3cc(C(=O)O)ccc32)CC(C)(C)C1` (stereo in doubt) [Example 2-31], for which 3.8 µM corresponded to half-maximal inhibition (IC50).

In turn, `COC(=O)c1ccc2c(c1)nc(Cc1ccccc1OC(F)(F)F)n2[C@@H]1C[C@H](C)CC(C)(C)C1` (racemic) [Example 2-13, (± methyl 2-[2-(trifluoromethoxy)benzyl]-1-[(cis)-3,3,5-trimethylcyclohexyl]-1H-benzimidazole-5-carboxylate] showed a half-maximal inhibitory concentration (IC50) of 10 µM.

For the compound `C[C@H]1C[C@@H](n2c(Cc3cn(C)c4ccccc34)nc3cc(C(=O)O)ccc32)CC(C)(C)C1` (stereo in doubt) [Example 2-43], the IC50 is 6.6 µM.

`COC(=O)c1ccc2c(c1)nc(Cc1ccc(OC(F)(F)F)cc1)n2[C@H]1C[C@@H](C)CC(C)(C)C1` (single isomer, unassigned) [Example 2-3-2, methyl 2-[4-(trifluoromethoxy)benzyl]-1-[(cis)-3,3,5-trimethylcyclohexyl]-1H-benzimidazole-5-carboxylate] registered an IC50 of 0.61 µM.

In turn, `Cc1[nH]c2ccc(F)cc2c1Cc1nc2cc(C(=O)O)ccc2n1[C@@H]1C[C@H](C)CC(C)(C)C1` (stereo in doubt) [Example 2-42] returned a concentration for half-maximal inhibition (IC50) of 7 µM. Compared with the last compound, the IC50 is about 11-fold higher.

With `COC(=O)c1ccc2c(c1)nc(C(C)(C)c1ccc(OC(F)(F)F)cc1)n2[C@H]1C[C@@H](C)CC(C)(C)C1` (racemic) [Reference compound 2-5, (±) methyl 2-{2-[4-(trifluoromethoxy)phenyl]propan-2-yl}-1-[(cis)-3,3,5-trimethylcyclohexyl]-1H-benzimidazole-5-carboxylate, reference compound], the IC50 is greater than 10 µM.

`COC(=O)c1cc2nc(Cc3ccc(OC(F)(F)F)cc3)n([C@H]3C[C@@H](C)CC(C)(C)C3)c2cc1OC(C)C` (racemic) [Example 2-20, (±) methyl 6-(propan-2-yloxy)-2[4-(trifluoromethoxy)benzyl]-1-[(cis)-3,3,5-trimethylcyclohexyl]-1H-benzimidazole-5-carboxylate]: the IC50 stood at 2.8 µM.

Compound `C[C@H]1C[C@@H](n2c(Cc3ccc(OC(F)(F)F)cc3)nc3cc(C(=O)O)c(OCC(F)(F)F)cc32)CC(C)(C)C1` (stereo in doubt) [Example 2-47-1] returned an IC50 of 2 µM.

In turn, `COC(=O)c1ccc2c(c1)nc(Cc1ccc(OC(C)C)cc1)n2[C@H]1C[C@@H](C)CC(C)(C)C1` (racemic) [Example 2-6, (±) methyl 2-[4-(propan-2-yloxy)benzyl]-1-[(cis)-3,3,5-trimethylcyclohexyl]-1H-benzimidazole-5-carboxylate] yielded an IC50 of 1.5 µM.

Compound `COC(=O)c1ccc2c(c1)nc(Cc1ccc(OC(F)(F)F)cc1)n2[C@H]1C[C@@H](C)CC(C)(C)C1` (single isomer, unassigned) [Example 2-3-1, methyl 2-[4-(trifluoromethoxy)benzyl]-1-[(cis)-3,3,5-trimethylcyclohexyl]-1H-benzimidazole-5-carboxylate] gave an IC50 of 1.7 µM.

The compound `C[C@@H]1C[C@H](n2c(Cc3ccc(C(F)(F)F)cc3)nc3cc(C#N)ccc32)CC(C)(C)C1` (racemic) [Example 2-26, (±) 2-[4-(trifluoromethyl)benzyl]-1-[(cis)-3,3,5-trimethylcyclohexyl]-1H-benzimidazole-5-carbonitrile] gave a half-maximal inhibitory concentration (IC50) of 0.7 µM.

Take `COC(=O)c1cc2nc(Cc3ccc(OC(F)(F)F)cc3)n([C@H]3C[C@@H](C)CC(C)(C)C3)c2cc1C` (single isomer, unassigned) [Example 2-18-2, methyl 6-methyl-2[4-(trifluoromethoxy)benzyl]-1-[(cis)-3,3,5-trimethylcyclohexyl]-1H-benzimidazole-5-carboxylate]: it took 1.2 µM to reach half-maximal inhibition (IC50).

Consider `C[C@H]1C[C@@H](n2c(Cc3cccc(OC(F)(F)F)c3)nc3cc(C(=O)O)ccc32)CC(C)(C)C1` (stereo in doubt) [Example 2-40], for which the IC50 stood at 1.8 µM.

For the compound `Cc1ccc(Cc2nc3cc(C(=O)O)ccc3n2[C@@H]2C[C@H](C)CC(C)(C)C2)cc1` (stereo in doubt) [Example 2-36], 0.58 µM corresponded to half-maximal inhibition (IC50).

Turning to `CC(C)Oc1ccc(Cc2nc3cc(C(=O)O)ccc3n2[C@@H]2C[C@H](C)CC(C)(C)C2)cc1` (stereo in doubt) [Example 2-32-1], it took 0.45 µM to reach half-maximal inhibition (IC50). The IC50 values of the last two compounds are within 1.5-fold of each other.

As for `COC(=O)c1cc2nc(Cc3ccc(OC(F)(F)F)cc3)n([C@H]3C[C@@H](C)CC(C)(C)C3)c2cc1OC(C)C` (single isomer, unassigned) [Example 2-20-2, methyl 6-(propan-2-yloxy)-2-[4-(trifluoromethoxy)benzyl]-1-[(cis)-3,3,5-trimethylcyclohexyl]-1H-benzimidazole-5-carboxylate], 3.3 µM corresponded to half-maximal inhibition (IC50).

`COC(=O)c1ccc2c(c1)nc(C(C)c1ccc(OC(F)(F)F)cc1)n2[C@H]1C[C@@H](C)CC(C)(C)C1` (single isomer, unassigned) [Reference compound 2-4-3, methyl 2-{1-[4-(trifluoromethoxy)phenyl]ethyl}-1-[(cis)-3,3,5-trimethylcyclohexyl]-1H-benzimidazole-5-carboxylate, reference compound] displayed an IC50 of 5 µM. Compared with the last compound, the IC50 is about 1.5-fold higher.

With `COC(=O)c1ccc2c(c1)nc(C(C)c1ccc(OC(F)(F)F)cc1)n2[C@H]1C[C@@H](C)CC(C)(C)C1` (relative stereo) [Reference compound 2-4, methyl 2-{1-[4-(trifluoromethoxy)phenyl]ethyl}-1-[(cis)-3,3,5-trimethylcyclohexyl]-1H-benzimidazole-5-carboxylate, reference compound], the IC50 is greater than 10 µM.

Regarding `COC(=O)c1ccc2c(c1)nc(Cc1ccc(OC(F)(F)F)cc1)n2[C@H]1C[C@@H](C)CC(C)(C)C1` (racemic) [Example 2-3, (±) methyl 2-[4-(trifluoromethoxy)benzyl]-1-[(cis)-3,3,5-trimethylcyclohexyl]-1H-benzimidazole-5-carboxylate], the IC50 turned out to be 0.67 µM. That is a sub-micromolar value.
